Measurements published in patent EP2794556B1, “BIS-(ARYL/HETEROARYL)-METHYLENE COMPOUNDS, PHARMACEUTICAL COMPOSITIONS CONTAINING SAME AND THEIR USE FOR TREATING CANCER” (Gleason, James L., priority 2011, dated 2013).

Experiments:
SCC25 cells = assay: EdU cell growth assay
Description: EdU cell growth assay. Click-iT EdU Alexa Fluor high-throughput imaging (HCS) assay for cell proliferation. HCS assays were performed on AT84 mouse squamous carcinoma cell line (ATCC) following the manufacturer's instruction (Molecular Probes, Invitrogen). […] All samples were in triplicate.

MDA-MB-231/ATCC = assay: NCI 60 cell panel
CAKI-1 = assay: NCI 60 cell panel
MALME-3M = assay: NCI 60 cell panel
SCC4 cells = assay: MTS cell proliferation assay; format: cell-based, human; conditions: vitamin D resistant SCC4 cells, Figures 7c, 8 and 9
Description: Dose-dependent effects of compounds on cell cycle progression was monitored using a CellTiter 96 Aqueous Non-Radioactive Cell Proliferation Assay Kit (Promega). The assay composed of solutions of a novel tetrazolium compound (MTS) and an electron coupling reagent (phenazine methosulfate; PMS). MTS is reduced by metabolically active cells into a soluble formazan product that absorbs at 490nm. The quantity of formazan product absorbing at 490nm is directly proportional to the number of living cells.

HOP-92 = assay: NCI 60 cell panel
NCI-H460 = assay: NCI 60 cell panel
UACC-62 = assay: NCI 60 cell panel
SNB-75 = assay: NCI 60 cell panel
MOLT-4 = assay: NCI 60 cell panel
DU-145 = assay: NCI 60 cell panel
UO-31 = assay: NCI 60 cell panel
SF-295 = assay: NCI 60 cell panel
HCC-2998 = assay: NCI 60 cell panel
RXF 393 = assay: NCI 60 cell panel
NCI-H522 = assay: NCI 60 cell panel
KM12 = assay: NCI 60 cell panel
COLO 205 = assay: NCI 60 cell panel
HOP-62 = assay: NCI 60 cell panel
[1] = system: 60 cell panel of human carcinoma cell lines; assay: NCI 60 cell panel, summary in text; format: cell-based
PC-3 = assay: NCI 60 cell panel
HL-60(TB) = assay: NCI 60 cell panel
HT29 = assay: NCI 60 cell panel
TK-10 = assay: NCI 60 cell panel
A549/A/TCC = assay: NCI 60 cell panel
M14 = assay: NCI 60 cell panel
SK-MEL-2 = assay: NCI 60 cell panel
RPMI-8226 = assay: NCI 60 cell panel

CCC(CC)(c1ccc(OCC(=O)NO)c(C)c1)c1ccc(OCC(O)C(C)(C)C)c(C)c1 (racemic) [JF-B01, N-Hydroxy-2-(4-(3-(4-(2-hydroxy-3,3-dimethylbutoxy)-3-methylphenyl)pentan-3-yl)-2-methylphenoxy)acetamide]
antiproliferative potency, fold less potent than 1,25D (SCC25 cells): 10 fold
EdU incorporation at higher concentrations (SCC25 cells; higher concentrations): completely abolished EdU incorporation
TGI (MDA-MB-231/ATCC; Breast Cancer, MDA-MB-231/ATCC): 8.45E-6
GI50 (MDA-MB-231/ATCC; Homo sapiens, MDA-MB-231): 2.18 µM
CC50 (MDA-MB-231/ATCC; Homo sapiens, MDA-MB-231, read-out: LC50): 31.6 µM
GI50 (CAKI-1; Homo sapiens, CAKI-1): 4.98 µM
CC50 (CAKI-1; Homo sapiens, CAKI-1, read-out: LC50): 41.3 µM
TGI (CAKI-1; Renal Cancer, CAKI-1): 1.71E-5
GI50 (MALME-3M; Homo sapiens, Malme-3M): 2.33 µM
CC50 (MALME-3M; Homo sapiens, Malme-3M, read-out: LC50): 35.7 µM
TGI (MALME-3M; Melanoma, MALME-3M): 1.07E-5
antiproliferative potency (SCC4 cells): low micromolar potency
GI50 (HOP-92; Homo sapiens, HOP-92): 3.08 µM
CC50 (HOP-92; Homo sapiens, HOP-92, read-out: LC50): 49.2 µM
TGI (HOP-92; Non-Small Cell Lung Cancer, HOP-92): 1.53E-5
GI50 (NCI-H460; Homo sapiens, NCI-H460): 1.6 µM
CC50 (NCI-H460; Homo sapiens, NCI-H460, read-out: LC50): 9.51 µM
TGI (NCI-H460; Non-Small Cell Lung Cancer, NCI-H460): 3.90E-6
GI50 (UACC-62; Homo sapiens, UACC-62): 1.68 µM
CC50 (UACC-62; Homo sapiens, UACC-62, read-out: LC50): 11.5 µM
TGI (UACC-62; Melanoma, UACC-62): 4.22E-6
TGI (SNB-75; CNS Cancer, SNB-75): 1.90E-5
GI50 (SNB-75; Homo sapiens, SNB-75): 0.0482 µM
CC50 (SNB-75; Homo sapiens, SNB-75, read-out: LC50): 62 µM
GI50 (MOLT-4; Homo sapiens, MOLT-4): 1.15 µM
CC50 (MOLT-4; Homo sapiens, MOLT-4, read-out: LC50): 40.9 µM
TGI (MOLT-4; Leukemia, MOLT-4): 4.60E-6
GI50 (DU-145; Homo sapiens, DU-145): 13 µM
CC50 (DU-145; Homo sapiens, DU-145, read-out: LC50): 50.6 µM
TGI (DU-145; Prostate Cancer, DU-145): 2.56E-5
GI50 (UO-31; Homo sapiens, UO-31): 1.92 µM
CC50 (UO-31; Homo sapiens, UO-31, read-out: LC50): 26.2 µM
TGI (UO-31; Renal Cancer, UO-31): 6.95E-6
TGI (SF-295; CNS Cancer, SF-295): 2.02E-5
GI50 (SF-295; Homo sapiens, SF-295): 7.61 µM
CC50 (SF-295; Homo sapiens, SF-295, read-out: LC50): 44.9 µM
TGI (HCC-2998; Colon Cancer, HCC-2998): 1.55E-5
GI50 (HCC-2998; Homo sapiens, HCC 2998): 4.23 µM
CC50 (HCC-2998; Homo sapiens, HCC 2998, read-out: LC50): 41.2 µM
GI50 (RXF 393; Homo sapiens, RXF 393): 5.34 µM
CC50 (RXF 393; Homo sapiens, RXF 393, read-out: LC50): 47.5 µM
TGI (RXF 393; Renal Cancer, RXF 393): 1.91E-5
GI50 (NCI-H522; Homo sapiens, NCI-H522): 0.196 µM
CC50 (NCI-H522; Homo sapiens, NCI-H522, read-out: LC50): 19.5 µM
TGI (NCI-H522; Non-Small Cell Lung Cancer, NCI-H522): 5.18E-7
TGI (KM12; Colon Cancer, KM12): 8.17E-6
GI50 (KM12; Homo sapiens, KM12): 2.15 µM
CC50 (KM12; Homo sapiens, KM12, read-out: LC50): 28.8 µM
TGI (COLO 205; Colon Cancer, COLO 205): 5.94E-6
GI50 (COLO 205; Homo sapiens, COLO 205): 2.33 µM
CC50 (COLO 205; Homo sapiens, COLO 205, read-out: LC50): 20.3 µM
GI50 (HOP-62; Homo sapiens, HOP-62): 3.69 µM
CC50 (HOP-62; Homo sapiens, HOP-62, read-out: LC50): 38.3 µM
TGI (HOP-62; Non-Small Cell Lung Cancer, HOP-62): 1.47E-5
antiproliferative activity ([1]; all cell lines of the panel): antiproliferative activity in all cell lines
full growth inhibition ([1]; melanoma cell lines, 8 out of 9 cell lines): ≤ 7 µM
GI50 (PC-3; Homo sapiens, PC-3): 3.04 µM
CC50 (PC-3; Homo sapiens, PC-3, read-out: LC50): 41.8 µM
TGI (PC-3; Prostate Cancer, PC-3): 1.23E-5
GI50 (HL-60(TB); Homo sapiens, HL-60): 0.944 µM
CC50 (HL-60(TB); Homo sapiens, HL-60, read-out: LC50): 8.8 µM
TGI (HL-60(TB); Leukemia, HL-60(TB)): 2.93E-6
TGI (HT29; Colon Cancer, HT29): 1.00E-5
GI50 (HT29; Homo sapiens, HT-29): 1.93 µM
CC50 (HT29; Homo sapiens, HT-29, read-out: LC50): 31.7 µM
GI50 (TK-10; Homo sapiens, TK-10): 2.83 µM
CC50 (TK-10; Homo sapiens, TK-10, read-out: LC50): 42.8 µM
TGI (TK-10; Renal Cancer, TK-10): 1.60E-5
GI50 (A549/A/TCC; Homo sapiens, A549): 3.62 µM
CC50 (A549/A/TCC; Homo sapiens, A549, read-out: LC50): 40.8 µM
TGI (A549/A/TCC; Non-Small Cell Lung Cancer, A549/A/TCC): 1.43E-5
GI50 (M14; Homo sapiens, M14): 2.3 µM
CC50 (M14; Homo sapiens, M14, read-out: LC50): 16.5 µM
TGI (M14; Melanoma, M14): 5.33E-6
GI50 (SK-MEL-2; Homo sapiens, SK-MEL-2): 1.9 µM
CC50 (SK-MEL-2; Homo sapiens, SK-MEL-2, read-out: LC50): 30 µM
TGI (SK-MEL-2; Melanoma, SK-MEL-2): 5.24E-6
GI50 (RPMI-8226; Homo sapiens, RPMI-8226): 1.12 µM
CC50 (RPMI-8226; Homo sapiens, RPMI-8226, read-out: LC50): 82.5 µM
TGI (RPMI-8226; Leukemia, RPMI-8226): 8.68E-6
